Reference: paper PMC5509440 (Bioorganic & medicinal chemistry, 2017)
Entries after “also recorded” stand apart in the source; their conditions may differ.

Assays:
[1] = system: T. b. brucei Lister 427 cells; experiment: T. brucei cell viability analysis; assay type: cell-based; conditions: Trypanosoma brucei, 48 h, read-out: IC50 against T. brucei cells, bloodstream form T. b. brucei Lister 427, 48 hrs, MTS
[2] = target: tubulin polymerization in T. brucei cells (Trypanosoma brucei rhodesiense, UniProt P04106+P04107); assay type: cell-based; conditions: different doses, 7 hrs, western blot with TAT-1 antibody
tubulin polymerization in T. brucei cells, sequence (P04106 whole entry): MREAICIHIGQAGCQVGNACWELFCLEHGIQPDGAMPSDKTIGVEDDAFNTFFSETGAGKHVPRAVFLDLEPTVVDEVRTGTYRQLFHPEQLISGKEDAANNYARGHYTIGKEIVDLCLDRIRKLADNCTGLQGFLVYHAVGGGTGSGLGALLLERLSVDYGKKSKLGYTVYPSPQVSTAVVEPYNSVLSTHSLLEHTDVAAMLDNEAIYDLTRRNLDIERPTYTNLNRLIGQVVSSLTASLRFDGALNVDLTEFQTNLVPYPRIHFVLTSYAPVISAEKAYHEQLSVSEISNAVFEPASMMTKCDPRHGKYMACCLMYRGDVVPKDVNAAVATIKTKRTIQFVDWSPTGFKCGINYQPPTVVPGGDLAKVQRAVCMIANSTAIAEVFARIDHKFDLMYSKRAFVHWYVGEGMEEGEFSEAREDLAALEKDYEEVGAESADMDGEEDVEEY
tubulin polymerization in T. brucei cells, sequence (P04107 whole entry): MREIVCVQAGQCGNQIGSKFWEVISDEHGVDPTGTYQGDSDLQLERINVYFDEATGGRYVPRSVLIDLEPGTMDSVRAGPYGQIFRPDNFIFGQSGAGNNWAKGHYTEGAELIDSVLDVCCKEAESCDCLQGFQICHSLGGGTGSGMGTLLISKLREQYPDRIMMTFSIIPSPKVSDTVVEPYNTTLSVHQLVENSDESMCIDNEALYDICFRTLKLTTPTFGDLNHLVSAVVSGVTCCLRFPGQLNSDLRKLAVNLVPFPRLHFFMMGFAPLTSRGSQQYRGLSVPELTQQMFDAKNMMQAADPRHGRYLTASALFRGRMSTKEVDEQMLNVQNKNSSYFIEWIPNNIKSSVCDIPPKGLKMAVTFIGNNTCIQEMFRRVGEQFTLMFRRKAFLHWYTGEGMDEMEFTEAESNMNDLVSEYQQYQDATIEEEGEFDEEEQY

In the case of `CN(c1ccc(NC(=O)c2cc(C(F)(F)F)cc(C(F)(F)F)c2)cc1OCc1ccc(C(F)(F)F)cc1)S(=O)(=O)Cc1ccccc1` [Compound 11, N-(4-(N-methyl-1-phenylmethylsulfonamido)-3-((4-(trifluoromethyl)benzyl)oxy)phenyl)-3,5-bis(trifluor omethyl)benzamide], the IC50 [1] is reported as < 5 µM.

With `CN(c1ccc(NC(=O)c2ccc(C#N)cc2)cc1OCc1ccc(C(F)(F)F)cc1)S(=O)(=O)Cc1ccccc1` [Compound 15, 4-cyano-N-(4-(N-methyl-1-phenylmethylsulfonamido)-3-((4-(trifluoromethyl)benzyl)oxy)phenyl)benzamide] the “amount of polymerized tubulin in T. brucei cells” value [2] was “decreased the amount of polymerized tubulin in a dose-dependent manner; also recorded: level of polymerized tubulin is significantly decreased”.
